Results reported in the NIST ThermoML archive (doi:10.1021/je700236c).
Where “and” joins values, the source holds several entries; their conditions need not be identical. Identical values can stand only once.

Conditions: Gas, Buoyancy - hydrostatic balance with magnetic suspension - two sinkers

CC(F)(F)F [1,1,1-trifluoroethane]
Conditions	mass density
283.15 K, 203.6 kPa	7.588 kg/m3 and 7.589 kg/m3
283.15 K, 399.9 kPa	15.605 kg/m3
283.15 K, 505.8 kPa	20.278 kg/m3 and 20.282 kg/m3
283.15 K, 605 kPa	24.935 kg/m3 and 24.932 kg/m3
283.15 K, 651.6 kPa	27.227 kg/m3
283.15 K, 651.7 kPa	27.238 kg/m3
283.15 K, 700.8 kPa	29.729 kg/m3 and 29.728 kg/m3
283.15 K, 750.8 kPa	32.363 kg/m3 and 32.361 kg/m3
283.15 K, 781.5 kPa	34.03 kg/m3
283.15 K, 781.6 kPa	34.039 kg/m3
283.15 K, 801.7 kPa	35.15 kg/m3
283.15 K, 801.8 kPa	35.164 kg/m3
283.15 K, 820.2 kPa	36.196 kg/m3
283.15 K, 820.3 kPa	36.205 kg/m3
293.15 K, 201.7 kPa	7.219 kg/m3
293.15 K, 201.8 kPa	7.222 kg/m3
293.15 K, 400.3 kPa	14.916 kg/m3 and 14.915 kg/m3
293.15 K, 599.3 kPa	23.356 kg/m3 and 23.36 kg/m3
293.15 K, 701.3 kPa	28.031 kg/m3 and 28.028 kg/m3
293.15 K, 798.2 kPa	32.729 kg/m3 and 32.732 kg/m3
293.15 K, 898.7 kPa	37.925 kg/m3 and 37.921 kg/m3
293.15 K, 951 kPa	40.774 kg/m3
293.15 K, 999.6 kPa	43.532 kg/m3
293.15 K, 1030.9 kPa	45.365 kg/m3 and 45.355 kg/m3
293.15 K, 1048.7 kPa	46.429 kg/m3
293.15 K, 1048.8 kPa	46.429 kg/m3
293.15 K, 1071 kPa	47.788 kg/m3
293.15 K, 1071.1 kPa	47.784 kg/m3
293.15 K, 1089 kPa	48.896 kg/m3 and 48.901 kg/m3
303.15 K, 200 kPa	6.895 kg/m3 and 6.903 kg/m3
303.15 K, 400.9 kPa	14.305 kg/m3 and 14.313 kg/m3
303.15 K, 600.3 kPa	22.265 kg/m3
303.15 K, 600.4 kPa	22.265 kg/m3
303.15 K, 801.6 kPa	31.034 kg/m3 and 31.031 kg/m3
303.15 K, 1001 kPa	40.662 kg/m3 and 40.666 kg/m3
303.15 K, 1099.9 kPa	45.879 kg/m3 and 45.88 kg/m3
303.15 K, 1197.3 kPa	51.364 kg/m3 and 51.363 kg/m3
303.15 K, 1249.2 kPa	54.458 kg/m3
303.15 K, 1299.5 kPa	57.578 kg/m3 and 57.581 kg/m3
303.15 K, 1340.6 kPa	60.231 kg/m3 and 60.229 kg/m3
303.15 K, 1369.8 kPa	62.181 kg/m3 and 62.183 kg/m3
303.15 K, 1401.5 kPa	64.363 kg/m3 and 64.364 kg/m3
303.15 K, 1423.7 kPa	65.925 kg/m3
303.15 K, 1423.9 kPa	65.952 kg/m3
313.15 K, 201.5 kPa	6.696 kg/m3
313.15 K, 201.8 kPa	6.718 kg/m3
313.15 K, 205.1 kPa	6.831 kg/m3 and 6.828 kg/m3
313.15 K, 206.2 kPa	6.869 kg/m3
313.15 K, 401.6 kPa	13.776 kg/m3
313.15 K, 401.7 kPa	13.775 kg/m3
313.15 K, 600.3 kPa	21.275 kg/m3 and 21.282 kg/m3
313.15 K, 800.3 kPa	29.41 kg/m3 and 29.413 kg/m3
313.15 K, 999.1 kPa	38.197 kg/m3 and 38.204 kg/m3
313.15 K, 1200.3 kPa	47.988 kg/m3 and 48.002 kg/m3
313.15 K, 1400.2 kPa	58.893 kg/m3 and 58.909 kg/m3
313.15 K, 1500.8 kPa	64.963 kg/m3 and 64.977 kg/m3
313.15 K, 1540.9 kPa	67.443 kg/m3 and 67.442 kg/m3
313.15 K, 1598 kPa	71.29 kg/m3
313.15 K, 1598.1 kPa	71.312 kg/m3
313.15 K, 1648.3 kPa	74.652 kg/m3 and 74.647 kg/m3
313.15 K, 1701.3 kPa	78.498 kg/m3 and 78.51 kg/m3
313.15 K, 1740.8 kPa	81.517 kg/m3 and 81.508 kg/m3
313.15 K, 1771.1 kPa	83.916 kg/m3 and 83.908 kg/m3
313.15 K, 1793.2 kPa	85.73 kg/m3
313.15 K, 1794.4 kPa	85.811 kg/m3

FCF [difluoromethane]
Conditions	mass density
313.15 K, 201.8 kPa	4.12 kg/m3
313.15 K, 201.9 kPa	4.121 kg/m3
313.15 K, 490.8 kPa	10.336 kg/m3 and 10.342 kg/m3
313.15 K, 791 kPa	17.275 kg/m3 and 17.277 kg/m3
313.15 K, 996.6 kPa	22.349 kg/m3 and 22.355 kg/m3
313.15 K, 1203.3 kPa	27.759 kg/m3 and 27.77 kg/m3
313.15 K, 1396.5 kPa	33.148 kg/m3 and 33.159 kg/m3
313.15 K, 1602.9 kPa	39.322 kg/m3 and 39.331 kg/m3
313.15 K, 1801.8 kPa	45.76 kg/m3
313.15 K, 1801.9 kPa	45.748 kg/m3
313.15 K, 1998.1 kPa	52.687 kg/m3 and 52.676 kg/m3
313.15 K, 2103.6 kPa	56.702 kg/m3 and 56.692 kg/m3
313.15 K, 2201.5 kPa	60.637 kg/m3 and 60.629 kg/m3
313.15 K, 2251 kPa	62.72 kg/m3 and 62.711 kg/m3
313.15 K, 2298.1 kPa	64.762 kg/m3 and 64.748 kg/m3
313.15 K, 2355.7 kPa	67.348 kg/m3
313.15 K, 2355.8 kPa	67.343 kg/m3
313.15 K, 2402.7 kPa	69.541 kg/m3
313.15 K, 2403 kPa	69.545 kg/m3
313.15 K, 2435 kPa	71.084 kg/m3
313.15 K, 2435.1 kPa	71.095 kg/m3
313.15 K, 2450.5 kPa	71.838 kg/m3
313.15 K, 2450.6 kPa	71.855 kg/m3
313.15 K, 2472 kPa	72.903 kg/m3 and 72.918 kg/m3
323.15 K, 207.9 kPa	4.101 kg/m3 and 4.103 kg/m3
323.15 K, 499.2 kPa	10.125 kg/m3 and 10.143 kg/m3 and 10.132 kg/m3
323.15 K, 801.1 kPa	16.793 kg/m3
323.15 K, 801.2 kPa	16.794 kg/m3
323.15 K, 998.3 kPa	21.387 kg/m3 and 21.393 kg/m3
323.15 K, 1095.2 kPa	23.732 kg/m3
323.15 K, 1200.3 kPa	26.337 kg/m3
323.15 K, 1200.4 kPa	26.341 kg/m3
323.15 K, 1397.4 kPa	31.424 kg/m3 and 31.416 kg/m3
323.15 K, 1590.6 kPa	36.664 kg/m3 and 36.67 kg/m3
323.15 K, 1797.2 kPa	42.644 kg/m3 and 42.658 kg/m3
323.15 K, 2004.9 kPa	49.091 kg/m3 and 49.105 kg/m3
323.15 K, 2200.6 kPa	55.637 kg/m3 and 55.653 kg/m3
323.15 K, 2402.3 kPa	62.99 kg/m3 and 62.978 kg/m3
323.15 K, 2596.1 kPa	70.738 kg/m3 and 70.733 kg/m3
323.15 K, 2699 kPa	75.19 kg/m3
323.15 K, 2699.1 kPa	75.207 kg/m3
323.15 K, 2799 kPa	79.805 kg/m3 and 79.816 kg/m3
323.15 K, 2802.9 kPa	80.005 kg/m3 and 80.017 kg/m3
323.15 K, 2900.6 kPa	84.82 kg/m3 and 84.839 kg/m3
323.15 K, 2901.2 kPa	84.882 kg/m3 and 84.872 kg/m3
323.15 K, 2947 kPa	87.258 kg/m3 and 87.244 kg/m3
323.15 K, 2960.3 kPa	87.971 kg/m3 and 87.99 kg/m3
323.15 K, 3002.2 kPa	90.24 kg/m3
323.15 K, 3002.3 kPa	90.261 kg/m3
323.15 K, 3010.2 kPa	90.716 kg/m3 and 90.73 kg/m3
323.15 K, 3041.1 kPa	92.478 kg/m3
323.15 K, 3041.2 kPa	92.495 kg/m3
323.15 K, 3074.6 kPa	94.445 kg/m3 and 94.453 kg/m3
323.15 K, 3099.5 kPa	95.942 kg/m3 and 95.952 kg/m3
323.15 K, 3125.5 kPa	97.558 kg/m3
323.15 K, 3125.6 kPa	97.549 kg/m3
323.15 K, 3134.2 kPa	98.084 kg/m3
